Test results: patent US11040016B2, “Composition for alleviating, preventing or treating female menopausal symptoms, containing, as active ingredient, pinitol, D-chiro-inositol or analog compounds thereof” (DY NATURAL CO., LTD, priority 2016, dated 2021)

What was measured:
[1] = system: sex-hormone binding globulin (SHBG); experiment: SHBG level in the blood of white rats after 8 weeks oral administration (ELISA); format: in vivo, Sprague-Dawley (SD) white rats; conditions: female SD rats
Experimental: Pinitol and D-chiro-inositol were purchased from Biosearch Life (Camino de Purchil, 66. 18004 Granada, Spain). Six-month-old female Sprague-Dawley (SD) white rats (Orient, Korea) were divided into a test group administered with pinitol or D-chiro-inositol and a control group administered with physiological saline while ten animals were used in the test for each of the groups. The rats were bred in a breeding room controlled under a temperature of 22±1° C., humidity of 55±1%, and 12-hour light/dark cycle. The rats were given free access to food and water, and for 7 days after entrance, the rats were acclimated for the breeding environment, and then were used for tests. Physiological saline and pinitol or D-chiro-inositol were orally administered at various doses (10 mg/kg, 20 mg/kg, or 40 mg/kg) at the same amount once a day for 8 weeks. After the last oral administration, the rats were fasted overnight and then anesthetized with ether, and the abdomen was cut open, and then blood was collected from the abdominal vein. The collected blood was transferred to a heparinized tube, followed by centrifugation at 2.500 rpm for 15 minutes for 4° C., thereby separating serum and plasma. The separated blood was stored at −80° C. until the next test. The levels of hormones and proteins in the blood were measured according to the manufacturer's manual by using the ELISA kit (Enzo Life Sciences, U.S.A.) for measurement of 17β-estradiol or sex-hormone binding globulin (SHBG) in the blood. In order to analyze the effects of pinitol or D-chiro-inositol (DCI) on the levels or activity of female hormones, which are blood indexes associated with menopausal symptoms, in female mature Sprague-Dawley (SD) white rats, a test was conducted. The physiological saline for the control group or pinitol or D-chiro-inositol (10 mg/kg, 20 mg/kg, and 40 mg/kg) for the test groups were orally administered at the predetermined time once a day for 8 weeks. After the completion of the last administration, the 17β-estradiol and sex-hormone binding globulin (SHBG) levels in the blood were measured by ELISA kit. […] Therefore, it could be confirmed that the SHBG level in the blood was decreased by pinitol or D-chiro-inositol, leading to increases in activity of female hormones. According to the test results, it was confirmed that both pinitol and D-chiro-inositol can alleviate female menopause symptoms by increasing the 17β-estradiol levels in the blood and decreasing the SHBG levels in the blood.

[2] = system: sex-hormone binding globulin (SHBG); experiment: SHBG level in the blood of middle-aged women after 8 weeks administration (ELISA); format: in vivo
Experimental: Forty middle-aged women aged 40 or more were divided into four groups each having ten women, and the four groups were designated as a control group taking a placebo and three test groups taking pinitol. Similarly, forty middle-aged women aged 40 or more were divided into four groups each having ten women, and the four groups were designated as a control group taking a placebo and three test groups taking D-chiro-inositol. Thereafter, the placebo, pinitol, or D-chiro-inositol was administered at various concentrations for 8 weeks in a double-blind fashion. […] The blood was taken from the arm vein at the same time, 2:00 pm, before intake and after the last intake, and then transferred to heparinized tubes, followed by centrifugation at 2,500 rpm (4° C.) for 15 minutes, and therefore, the plasma was separated by transfer to new tubes. The separated plasma was used to measure sex hormone levels in the blood. The levels of hormones and proteins in the blood were measured according to the manufacturer's manual by using the ELISA kit (Enzo Life Sciences, U.S.A.) for measurement of 17β-estradiol or sex-hormone binding globulin (SHBG) in the blood. In order to analyze the effects of pinitol and D-chiro-inositol on sex hormones in middle-aged women, forty middle-aged 40 or more were divided into four groups each having ten women, and the four groups were designated as a control group taking a placebo and three test groups taking pinitol. Similarly, forty middle-aged women aged 40 or more were divided into four groups each having ten women, and the four groups were designated as a control group taking a placebo and three test groups taking D-chiro-inositol. Thereafter, the placebo, pinitol, or D-chiro-inositol was administered at various concentrations for 8 weeks in a double-blind fashion. […] As a result of the test, there was no significant change in 17β-estradiol level in the blood in the women between pre- and pro-administration of the placebo. […] According to the test results, it could be confirmed that, similar to the results in the white rats, pinitol and D-chiro-inositol can alleviate female menopause symptoms by increasing the 17β-estradiol levels in the blood and decreasing the SHBG levels in the blood.

[3] = system: 17β-estradiol; experiment: 17β-estradiol level in the blood of middle-aged women after 8 weeks administration (ELISA); format: in vivo; conditions: middle-aged women, 600, 1,200, 2,400 mg a day for 8 weeks
Experimental: Forty middle-aged women aged 40 or more were divided into four groups each having ten women, and the four groups were designated as a control group taking a placebo and three test groups taking pinitol. Similarly, forty middle-aged women aged 40 or more were divided into four groups each having ten women, and the four groups were designated as a control group taking a placebo and three test groups taking D-chiro-inositol. Thereafter, the placebo, pinitol, or D-chiro-inositol was administered at various concentrations for 8 weeks in a double-blind fashion. The pinitol, D-chiro-inositol, or placebo was administered at 600 mg, 1,200 mg, and 2,400 mg a day. The blood was taken from the arm vein at the same time, 2:00 pm, before intake and after the last intake, and then transferred to heparinized tubes, followed by centrifugation at 2,500 rpm (4° C.) for 15 minutes, and therefore, the plasma was separated by transfer to new tubes. The separated plasma was used to measure sex hormone levels in the blood. The levels of hormones and proteins in the blood were measured according to the manufacturer's manual by using the ELISA kit (Enzo Life Sciences, U.S.A.) for measurement of 17β-estradiol or sex-hormone binding globulin (SHBG) in the blood. In order to analyze the effects of pinitol and D-chiro-inositol on sex hormones in middle-aged women, forty middle-aged 40 or more were divided into four groups each having ten women, and the four groups were designated as a control group taking a placebo and three test groups taking pinitol. Similarly, forty middle-aged women aged 40 or more were divided into four groups each having ten women, and the four groups were designated as a control group taking a placebo and three test groups taking D-chiro-inositol. Thereafter, the placebo, pinitol, or D-chiro-inositol was administered at various concentrations for 8 weeks in a double-blind fashion. The pinitol or D-chiro-inositol was administered at 600 mg, 1,200 mg, and 2,400 mg a day for 8 weeks. As a result of the test, there was no significant change in 17β-estradiol level in the blood in the women between pre- and pro-administration of the placebo. […] According to the test results, it could be confirmed that, similar to the results in the white rats, pinitol and D-chiro-inositol can alleviate female menopause symptoms by increasing the 17β-estradiol levels in the blood and decreasing the SHBG levels in the blood.

[4] = system: 17β-estradiol; experiment: 17β-estradiol level in the blood of white rats after 8 weeks oral administration (ELISA); format: in vivo, Sprague-Dawley (SD) white rats; conditions: female SD rats, 10, 20, 40 mg/kg oral once a day for 8 weeks, vs physiological saline
Experimental: Pinitol and D-chiro-inositol were purchased from Biosearch Life (Camino de Purchil, 66. 18004 Granada, Spain). Six-month-old female Sprague-Dawley (SD) white rats (Orient, Korea) were divided into a test group administered with pinitol or D-chiro-inositol and a control group administered with physiological saline while ten animals were used in the test for each of the groups. The rats were bred in a breeding room controlled under a temperature of 22±1° C., humidity of 55±1%, and 12-hour light/dark cycle. The rats were given free access to food and water, and for 7 days after entrance, the rats were acclimated for the breeding environment, and then were used for tests. Physiological saline and pinitol or D-chiro-inositol were orally administered at various doses (10 mg/kg, 20 mg/kg, or 40 mg/kg) at the same amount once a day for 8 weeks. […] The levels of hormones and proteins in the blood were measured according to the manufacturer's manual by using the ELISA kit (Enzo Life Sciences, U.S.A.) for measurement of 17β-estradiol or sex-hormone binding globulin (SHBG) in the blood. […] After the completion of the last administration, the 17β-estradiol and sex-hormone binding globulin (SHBG) levels in the blood were measured by ELISA kit. […]

[5] = system: middle-aged women; experiment: Menopause Rating Scale (MRS) survey in middle-aged women; format: in vivo; conditions: for alleviation rate of menopausal symptoms: MRS vs placebo; for MRS score post-taking compared with placebo taking group and pre-taking: middle-aged women, 600, 1,200, 2,400 mg once a day for 8 weeks
Experimental: Forty middle-aged women aged 40 or more were divided into four groups each having ten women, and the four groups were designated as a control group taking a placebo and three test groups taking pinitol. Similarly, forty middle-aged women aged 40 or more were divided into four groups each having ten women, and the four groups were designated as a control group taking a placebo and three test groups taking D-chiro-inositol. Thereafter, the placebo, pinitol, or D-chiro-inositol was administered at various concentrations for 8 weeks in a double-blind fashion. The pinitol, D-chiro-inositol, or placebo was administered at 600 mg, 1,200 mg, and 2,400 mg a day. The blood was taken from the arm vein at the same time, 2:00 pm, before intake and after the last intake, and then transferred to heparinized tubes, followed by centrifugation at 2,500 rpm (4° C.) for 15 minutes, and therefore, the plasma was separated by transfer to new tubes. The separated plasma was used to measure sex hormone levels in the blood. Since subjective symptoms account for a large proportion of menopausal symptoms, several measures are used to assess the degrees of menopausal clinical symptoms. For assessment of menopausal clinical symptoms, Kupperman's index has been used for a long time. However, questions of vaginal dryness, reduction of sexual desire, and the like, are missing in the Kupperman's index, and therefore, the Menopause Rating Scale (MRS) and the Menopause-Specific Quality of Life Questionnaire (MENQOL), which are questionnaires supplementing such questions, are being widely used in current clinical trials. The MRS has been globally recognized to have reliability and feasibility due to its advantages of having a small number of questions, a total of 11 questions, and being simple and convenient, and thus the MRS is being recited in many studies (Table 1). In the present invention, the severity of menopausal symptoms was measured and analyzed by allowing the above middle-aged women clinical subjects to fill out the MRS questionnaire. The alleviating effects on female menopause symptoms were assessed by allowing the middle-aged women clinical subjects to fill out the Menopause Rating Scale (MRS) questionnaire pre- and post-intake of the placebo, pinitol, or D-chiro-inositol. [table] In order to assess the alleviating effects of female menopause symptoms by pinitol and D-chiro-inositol, a Korean-version Menopause Rating Scale (MRS) survey was performed. Eighty middle-aged 40 or more were divided into four groups, a placebo group and pinitol administration groups, each having ten women, and similarly, were divided into four groups, a placebo group and D-chiro-inositol administration groups, each having ten women. Thereafter, the placebo and 600 mg, 1,200 mg, and 2,400 mg of pinitol or D-chiro-inositol were administered once a day for 8 weeks in a double-blind fashion. The women were allowed to fill out the Menopause Rating Scale (MRS) questionnaire before and after taking the placebo, pinitol, or D-chiro-inositol. The scores of the MRS questionnaire were calculated as a total score. The 0-4 points indicate a good menopausal state, which is a smooth menopause state. A total of 5-8 points indicate a slight menopausal state, requiring management. A total of 9-15 points indicate a severe menopausal state, requiring precise diagnosis and treatment by specialists because of menopausal diseases. Last, a total of 16 points or more indicates an extremely severe menopausal state, thereby urgently requiring therapy through minute management and long-term plans. […] The MRS measurement results could confirm that pinitol alleviated female menopause symptoms caused by female hormone reduction, such as reduction of sexual desire, insomnia, urogenital diseases and infections, joint and muscular diseases, depression, and hypersensitiveness.

[6] = 10 mg/kg oral once a day for 8 weeks
[7] = 20 mg/kg oral once a day for 8 weeks
[8] = 40 mg/kg oral once a day for 8 weeks
[9] = middle-aged women, 600 mg a day for 8 weeks
[10] = middle-aged women, 1,200 mg a day for 8 weeks
[11] = middle-aged women, 1,400 mg administration group, 8 weeks
[12] = middle-aged women, 600 mg once a day for 8 weeks
[13] = middle-aged women, 1,200 mg once a day for 8 weeks
[14] = middle-aged women, 2,400 mg once a day for 8 weeks

Compound	decrease of SHBG level in the blood compared with control group [1, 6]	decrease of SHBG level in the blood compared with control group [1, 7] [nmol/L]	decrease of SHBG level in the blood compared with control group [1, 8] [nmol/L]	decrease of SHBG level in the blood compared with placebo administration group [2, 9]	decrease of SHBG level in the blood compared with placebo administration group [2, 10] [nmol/L]	decrease of SHBG level in the blood compared with placebo administration group [2, 11] [nmol/L]	17β-estradiol level in the blood compared with placebo administration group [3]	17β-estradiol level in the blood, pre- versus post-administration [3]	17β-estradiol level in the blood compared with control group [4]	decrease of average MRS score compared with placebo group [5, 12] [points]	alleviation rate of menopausal symptoms [5, 12]	decrease of average MRS score compared with placebo group [5, 13] [points]	alleviation rate of menopausal symptoms [5, 13] [%]	decrease of average MRS score compared with placebo group [5, 14] [points]	alleviation rate of menopausal symptoms [5, 14] [%]	MRS score post-taking compared with placebo taking group and pre-taking [5]	SHBG level in the blood, pre- versus post-administration ([2]; middle-aged women, 8 weeks)
O[C@H]1[C@H](O)[C@H](O)[C@@H](O)[C@H](O)[C@H]1O [D-chiro-inositol]	about 7.0 nmol/L	~16.2	~21.1	about 8.7 nmol/L	~15.9	~18.4	significantly increased in a concentration-dependent manner	no particular difference	significantly increased in a concentration-dependent manner	5.7	about 40.7%	9.7	~69.3	10.3	~73.6	significantly decreased	
CO[C@H]1[C@H](O)[C@@H](O)[C@@H](O)[C@H](O)[C@@H]1O [pinitol]	about 4.2 nmol/L	~10.0	~12.2	about 8.3 nmol/L	~16.0	~18.6	significantly increased in a concentration-dependent manner	no particular difference	significantly increased in a concentration-dependent manner	4.3	about 32.6%	8.4	~63.6	9.1	~68.9	significantly decreased	no particular difference
